Test [1] relates to non-small cell lung cancer cells H460. Nature of the test: Sub-G1 phase cell number, propidium iodide flow cytometry. In kind it is cell-based, human. The settings on record: 50 μM, 48 hours. As for the experimental part: (§1) After incubation of the non-small cell lung cancer cells A549 and H460 treated with 50 μM of the compound PB01 or PB11 of Examples ?5 and 3 for 48 hours, the non-small cell lung cancer cells A549 and H460 were collected and floated with a 1×PBS (pH 7.4), followed by fixing at about −20° C. with a 70% cold ethanol, washing twice with a 1×PBS, and then staining with 10 μg/mL of propidium iodide (including 0.5% of PI, Tween-20, 100 μg/mL of 0.1% RNase) at room temperature for about 30 minutes. The stained cells were analyzed by flow cytometry with a FACScan™ (available from Becton Dicknson).

Test [2] relates to non-small cell lung cancer cells A549. The test is described as above. It counts as cell-based, human. The settings on record: 50 μM, 48 hours. As for the experimental part:
as §1

Test [3] concerns non-small cell lung cancer cell strain H460. Kind of test: LDH release. In kind it is cell-based, human. The note with it: 50 uM, 0 to 48 hours, compared to untreated. As to the method:
(§2) After incubation of the non-small cell lung cancer cell strains A549 and H460 treated with the compound PB01 or PB11 for 8, 24, and 48 hours, only supernatants were recovered the culture products. The activity of lactate dehydrogenase (LDH) may be measured by detecting an amount of LDH released from the cell cytosol with a Cytotoxicity Detection Kit (available from Roche Applied Science, Indianapolis, Ind.). The amounts of LDH release induced by the compound PB01 or PB11 were calculated as a percentage amount of extracellular LDH released from the cells with respect to a total amount of LDH as a sum of the extracellular released LDH and the intracellular LDH remaining in the cells.
For orientation: Release of lactate dehydrogenase indicates damage to the cell membrane.

Test [4] concerns non-small cell lung cancer cell strain A549. Nature of the test: LDH release. In kind it is cell-based, human. The settings on record: 50 uM, 0 to 48 hours, compared to untreated. As to the method: as §2
Test [5] relates to non-small cell lung cancer cell strain H460. Kind of test: Apoptosis ratio, Annexin V flow cytometry. The settings on record: about 40 hours, 50 μM PB01, 50 μM PB11, 150 μM PB12, FIGS. 9A and 9B. It counts as cell-based, human. As for the experimental part: (§3) About 5×10^5 cells per well of each of the non-small cell lung cancer cell strains A549 and H460 were portioned into a 6-well plate and then incubated with the compounds PB01 or PB11 for about 40 hours in the same manner as described above. A cell layer was washed with PBS and then treated with trypsin-EDTA solution to isolate cells. The isolated cells were collected and stained with an Annexin V Flous Staining kit (available Roche Applied Science, Penzberg, Germany) in a dark condition for about 30 minutes. The stained cells were analyzed by flow cytometry using a FACScan™ (available from Becton Dicknson) to count the number of dead cells and then calculate an apoptosis ratio. The same experiment was performed with 50 μM of PB01, 50 μM of PB11, or 150 μM of PB12 in the same manner as described above. The graphs of cell viability with respect to compound concentration and incubation time obtained based on the experimental results are shown in FIGS. 9A and 9B.
On the technique in general: A flow cytometer gives signals particle by particle.

For test [6], the system named is non-small cell lung cancer cell strain A549. Nature of the test: Apoptosis ratio, Annexin V flow cytometry. The note with it: 50 μM, about 40 hours, FIG. 9A. It counts as cell-based, human. As for the experimental part:
as §3

The test system of test [7] is non-small cell lung cancer cell strain H460. Kind of test: Radiation sensitivity measurement, colony formation. It counts as cell-based, human. The note with it: 14 days. As for the experimental part:
About 500 cells of non-small cell lung cancer cell strain H460 were floated on each of 60-mm cell culture plates, and then incubated for about 24 hours. After the cells were stably fixed on the bottom of the cell culture plate, the cells were treated with ciglitazone (10 μM), PB01 (10 μM), or PB11 (5 μM, 10 μM), cultured for about 24 hours, and then irradiated with γ-radiation (3.2 Gy/min, Gammacell 3000; Atomic Energy of Canada, Ltd., Mississauga, ON, Canada) at doses of 2 Gy, 4 Gy, and 6 Gy. After incubation for 14 days, followed staining using a 1% crystal violet staining reagent solution (in methanol) to selectively count colonies having a diameter of about 0.5 mm or larger. SF (surviving fraction)=number of colonies formed/number of cells seeded×plating efficiency of the control group

In test [8] the test system is various cancer cell strains (A549, H460, MCF-7, T-470, LoVo, SW480, HL-60, K562). Kind of test: Cancer cell growth inhibition, WST-1 cell viability. In kind it is cell-based, human. The settings on record: for selectivity of cell growth inhibitory effect, cancer versus non-cancer cell strains: cancer cell strains vs MRC-5 and MRC-9; for growth inhibitory effects on various cancer cell strains: concentration of 50 μM, WST-1. As for the experimental part:
Cancer cell growth inhibitory effects of the compounds PB01 and PB11 of Examples 5 and 3 identified as PPAR-γ ligands were evaluated. Growth inhibitory effects of the compounds PB01 and PB11 of Examples 5 and 3 on various cancer cells, including human non-small cell lung cancer cell strains (A549, H460), breast cancer cell strains (MCF-7, T-470), colorectal cancer cell strains (LoVo, SW480), and leukocytes cancer cell strains (HL-60, K562) (American Type Culture Collection, Manassas, Va.), were evaluated using WST-1 method. About 5×10^3 cells per well of each type of cancer cell strains were portioned into a 96-well plate, and incubated with different concentrations of each of the compounds PB01 and PB11 of Examples 5 and 3 in 200 ul of a culture solution for 24 hours, 48 hours, and 72 hours. After the incubation for the different durations, 10 ul of a WST-1 solution was added to each well, followed by incubation at about 37° C. for about 1 hour. Absorbance at 450 nm was measured to determine cell viability.
(Formazan colour is commonly taken as a measure of viable cells.)

The test system of test [9] is non-small cell lung cancer cell strain H460. Kind of test: Morphological changes, inverted microscope 200×. It counts as cell-based, human. The settings on record: 50 μM, 48 hours. As for the experimental part:
After the incubation along with 50 μM of the compounds PB01 or PB11 for 48 hours, morphological changes in the non-small cell lung cancer cell strain H460 were observed using an inverted microscope at a magnification of 200×.

Test [10] deals with 3T3-L1 cells. Kind of test: PPAR-γ ligand identification test: adipogenesis induction, Oil-Red-O staining. It counts as cell-based. The note with it: 10 μM, about 48 hours. As to the method:
The ability to induce adipogenesis of the compound PB11 of Example 3 and the compound PB01 of Example 5 was tested to identify whether the compounds PB11 and PB01 had activity of PPAR-γ ligands. 3T3-L1 cells (American Type Culture Collection, Manassas, Va.) were treated with 10 μM of the compounds PB11 or PB01 to induce adipogenesis. 3T3-L1 cells without any treatment, those treated with the same concentration of ciglitazone, and those treated with the same concentration of GW9662 (Cayman, Ann Arbor, Mich.) known as PPAR-γ ligand antagonist were used as control groups. After the induction of adipogenesis for about 48 hours, a degree of adipogenesis was identified by Oil-Red-O staining.
FIG. 1 illustrates the results of imaging degrees of adipogenesis via Oil-Red-O staining after the treatment of 3T3-L1 cells with control compounds and 10 μM of the compounds PB01 or PB11 of Examples 3 and 5 for about 48 hours to induce adipogenesis.

`COC1CCC(C(=O)Nc2ccc3nc(SCc4c(C)noc4C)sc3c2)CC1` (stereo not drawn) [PB01]: the “number of sub-G1 phase cells” value in [1] and in test [2] was “sharp increase” throughout. The “amount of extracellular LDH released” value in [3] and in test [4] was “increased with time” each time. For the same compound, the “apoptosis induction (Annexin V)” value in test [5] and in test [6] was “kill the non-small cell lung cancer cells by inducing apoptosis” throughout. Moreover, the “effect as radiation sensitizer” value in [7] (10 μM in combination with radiation at a dose of 4 Gy) is listed as “significant effect as radiation sensitizers”. Also, the “selectivity of cell growth inhibitory effect, cancer versus non-cancer cell strains” value in test [8] is “selectively only on cancer cell strains”. For the same compound, in [8], the “growth inhibitory effects on various cancer cell strains” value was “prominent”. For the same compound, the morphological changes result in test [9] was “lose adhesion with reduced density”. In addition, the PPAR-γ ligand identification result in test [10] is recorded as “found to be PPAR-γ ligands”. The “ability to induce adipogenesis” value in test [10] is “outstanding ability to induce adipogenesis”.

For the compound `Cc1noc(C)c1CSc1nc2ccc(NC(=O)C3CCC(=O)CC3)cc2s1` [PB11], the “number of sub-G1 phase cells” value in test [1] and in [2] was “sharp increase” each time. Moreover, the “amount of extracellular LDH released” value in [3] and in [4] was “increased with time” each time. In addition, the “apoptosis induction (Annexin V)” value in test [5] and in [6] was “kill the non-small cell lung cancer cells by inducing apoptosis” each time. The “effect as radiation sensitizer” value in [7] (5 μM in combination with radiation at a dose of 4 Gy) is recorded as “significant effect as radiation sensitizers”. Besides, the “selectivity of cell growth inhibitory effect, cancer versus non-cancer cell strains” value in test [8] was “selectively only on cancer cell strains”. Further, the “growth inhibitory effects on various cancer cell strains” value in test [8] is listed as “prominent”. In addition, the morphological changes entry in test [9] is listed as “lose adhesion with reduced density”. Further, the PPAR-γ ligand identification entry in test [10] is given as “found to be PPAR-γ ligands”. Besides, the “ability to induce adipogenesis” value in test [10] is “high activity in adipogenesis induction”.
